Measurements from patent US9714247B2, “Multiple kinase pathway inhibitors” (Mannkind Corporation, priority 2012, dated 2017).
Like-named read-outs stand apart in the source and are kept apart here.

Legend:
[1] = biological target: BTK (Homo sapiens (Human), UniProt Q06187)
[2] = test system: DoHH2; test: CellTiter-Glo proliferation/viability assay; type: cell-based, human; details: 48 hrs, read-out: DoHH2 EC50
[3] = biological target: Src (Homo sapiens (Human), UniProt P12931); details: read-out: Src IC50
[4] = biological target: Lyn (Homo sapiens (Human), UniProt P07948); details: read-out: Lyn IC50
[5] = test system: Ramos; test: CellTiter-Glo proliferation/viability assay; type: cell-based, human; details: read-out: Ramos EC50

Chain of BTK (Q06187 whole entry): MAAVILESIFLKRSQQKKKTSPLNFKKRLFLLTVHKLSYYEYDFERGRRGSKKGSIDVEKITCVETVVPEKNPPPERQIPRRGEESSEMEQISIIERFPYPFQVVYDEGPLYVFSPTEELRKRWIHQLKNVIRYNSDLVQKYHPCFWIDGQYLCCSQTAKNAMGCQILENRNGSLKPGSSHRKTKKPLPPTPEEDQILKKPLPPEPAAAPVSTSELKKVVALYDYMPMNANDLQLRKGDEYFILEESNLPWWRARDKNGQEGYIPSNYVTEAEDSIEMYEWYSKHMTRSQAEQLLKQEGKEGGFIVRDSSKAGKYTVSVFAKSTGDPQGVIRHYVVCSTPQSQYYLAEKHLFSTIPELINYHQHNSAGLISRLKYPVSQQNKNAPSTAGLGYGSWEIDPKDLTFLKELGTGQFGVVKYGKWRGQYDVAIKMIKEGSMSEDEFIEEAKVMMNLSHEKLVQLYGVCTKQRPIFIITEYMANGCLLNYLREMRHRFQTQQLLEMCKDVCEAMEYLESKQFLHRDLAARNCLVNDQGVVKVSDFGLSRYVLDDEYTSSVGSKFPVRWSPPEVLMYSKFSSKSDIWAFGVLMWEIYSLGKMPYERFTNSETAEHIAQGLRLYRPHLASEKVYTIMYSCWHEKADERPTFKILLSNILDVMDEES
Chain of Lyn (P07948 whole entry): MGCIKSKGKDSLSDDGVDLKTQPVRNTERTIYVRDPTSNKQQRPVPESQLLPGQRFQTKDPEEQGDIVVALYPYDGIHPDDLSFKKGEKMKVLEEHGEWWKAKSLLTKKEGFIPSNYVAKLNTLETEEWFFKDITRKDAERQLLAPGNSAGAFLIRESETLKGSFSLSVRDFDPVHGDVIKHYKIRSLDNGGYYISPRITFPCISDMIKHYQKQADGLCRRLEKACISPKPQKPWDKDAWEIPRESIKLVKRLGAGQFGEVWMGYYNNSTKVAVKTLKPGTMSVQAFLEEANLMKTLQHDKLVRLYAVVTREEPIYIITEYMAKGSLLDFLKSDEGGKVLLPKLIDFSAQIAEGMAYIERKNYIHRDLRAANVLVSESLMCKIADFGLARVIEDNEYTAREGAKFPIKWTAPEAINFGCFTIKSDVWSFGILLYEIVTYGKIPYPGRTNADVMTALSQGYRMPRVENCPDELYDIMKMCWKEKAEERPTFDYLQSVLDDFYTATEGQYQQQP
Chain of Src (P12931 whole entry, looked up): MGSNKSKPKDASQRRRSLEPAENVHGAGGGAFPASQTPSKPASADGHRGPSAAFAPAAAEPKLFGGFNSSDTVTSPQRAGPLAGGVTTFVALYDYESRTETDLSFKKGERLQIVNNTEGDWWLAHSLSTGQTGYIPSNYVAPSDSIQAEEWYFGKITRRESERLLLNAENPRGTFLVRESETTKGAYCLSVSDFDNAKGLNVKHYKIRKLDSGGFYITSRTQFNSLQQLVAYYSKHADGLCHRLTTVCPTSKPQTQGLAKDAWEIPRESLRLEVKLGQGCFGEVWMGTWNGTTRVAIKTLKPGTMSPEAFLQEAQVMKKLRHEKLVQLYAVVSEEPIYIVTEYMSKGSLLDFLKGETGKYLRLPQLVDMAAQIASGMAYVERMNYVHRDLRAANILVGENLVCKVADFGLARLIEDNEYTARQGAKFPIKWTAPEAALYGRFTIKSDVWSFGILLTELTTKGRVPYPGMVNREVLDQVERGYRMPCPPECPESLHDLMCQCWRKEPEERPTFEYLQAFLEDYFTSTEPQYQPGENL

Compound	IC50 ([1]; read-out: BTK IC50)	EC50 [2]	IC50 [3]	IC50 [4]	EC50 ([5]; 48 hrs)	IC50 [1]	EC50 ([2]; Homo sapiens, DOHH-2)	EC50 ([5]; Homo sapiens, Ramos, 48 h)	EC50 ([5]; Homo sapiens, Ramos, 48 hrs)
CCN(CC)CCOc1ccc(Nc2cc3c(cn2)cc(-c2c(F)cccc2F)c(=O)n3C2CCOC2)nc1 (single isomer, unassigned) [Compound 144, (R or S)-7-((5-(2-(diethylamino)ethoxy)pyridin-2-yl)amino)-3-(2,6-difluorophenyl)-1-(tetrahydrofuran-3-yl)-1,6-naphthyridin-2(1H)-one]	< 100 nM	< 1000 nM	< 100 nM	< 100 nM	1000 to 10000 nM	–	–	–	–
CCN(CC)CCOc1ccc(Nc2cc3c(cn2)cc(-c2c(Cl)cccc2Cl)c(=O)n3C2CCOC2)nc1 (single isomer, unassigned) [Compound 146, (R or S)-3-(2,6-dichlorophenyl)-7-((5-(2-(diethylamino)ethoxy)pyridin-2-yl)amino)-1-(tetrahydrofuran-3-yl)-1,6-naphthyridin-2(1H)-one]	< 100 nM	< 1000 nM	< 100 nM	< 100 nM	1000 to 10000 nM	–	–	–	–
O=c1c(-c2c(Cl)cccc2Cl)cc2cnc(Nc3ccc(F)cn3)cc2n1C1CCOC1 (single isomer, unassigned) [Compound 148, (R or S)-3-(2,6-dichlorophenyl)-7-((5-fluoropyridin-2-yl)amino)-1-(tetrahydrofuran-3-yl)-1,6-naphthyridin-2(1H)-one]	< 100 nM	< 1000 nM	< 100 nM	< 100 nM	> 10000 nM	–	–	–	–
CCn1c(=O)c(-c2ccccc2)cc2cnc(Nc3ncc(C)o3)cc21 [Compound 9, 1-Ethyl-7-(5-methyl-oxazol-2-ylamino)-3-phenyl-1H-[1,6]naphthyridin-2-one]	–	–	> 5000 nM	> 5000 nM	–	1000 to 5000 nM	1000 to 10000 nM	> 10000 nM	–
CCn1c(=O)c(-c2ccsc2)cc2cnc(Nc3ccc(C)cn3)cc21 [Compound 10, 1-Ethyl-7-(5-methyl-pyridin-2-ylamino)-3-thiophen-3-yl-1H-[1,6]naphthyridin-2-one]	–	–	> 5000 nM	> 5000 nM	–	1000 to 5000 nM	> 10000 nM	–	> 10000 nM
CCn1c(=O)c(-c2cccs2)cc2cnc(Nc3ccc(C)cn3)cc21 [Compound 11, 1-Ethyl-7-(5-methyl-pyridin-2-ylamino)-3-thiophen-2-yl-1H-[1,6]naphthyridin-2-one]	–	–	> 5000 nM	> 5000 nM	–	100 to 1000 nM	> 10000 nM	–	> 10000 nM
CCn1c(=O)c(C2CCCCC2)cc2cnc(Nc3ccc(C)cn3)cc21 [Compound 12, 3-Cyclohexyl-1-ethyl-7-(5-methyl-pyridin-2-ylamino)-1H-[1,6]naphthyridin-2-one]	> 5000 nM	–	> 5000 nM	> 5000 nM	–	–	> 10000 nM	–	> 10000 nM
CCn1c(=O)c(C(C)C)cc2cnc(Nc3ccc(C)cn3)cc21 [Compound 13, 1-Ethyl-3-isopropyl-7-(5-methyl-pyridin-2-ylamino)-1H-[1,6]naphthyridin-2-one]	–	–	> 5000 nM	> 5000 nM	–	1000 to 5000 nM	1000 to 10000 nM	1000 to 10000 nM	–
CCn1c(=O)c(CC(C)C)cc2cnc(Nc3ccc(C)cn3)cc21 [Compound 20, 1-Ethyl-3-isobutyl-7-(5-methyl-pyridin-2-ylamino)-1H-[1,6]naphth yridin-2-one]	–	–	> 5000 nM	> 5000 nM	–	100 to 1000 nM	> 10000 nM	> 10000 nM	–
CCn1c(=O)c(-c2ccc(F)cc2)cc2cnc(Nc3ccc(C)cn3)cc21 [Compound 26]	> 5000 nM	–	> 5000 nM	> 5000 nM	–	–	> 10000 nM	–	> 10000 nM
CCn1c(=O)c(-c2cccc(F)c2)cc2cnc(Nc3ccc(C)cn3)cc21 [Compound 29, 1-ethyl-3-(3-fluorophenyl)-7-(5-methylpyridin-2-ylamino)-1,6-naphthyridin-2(1H)-one]	> 5000 nM	–	> 5000 nM	> 5000 nM	–	–	> 10000 nM	–	> 10000 nM
CCN(CC)CCOc1ccc(Nc2cc3c(cn2)cc(C(C)C)c(=O)n3C2CC2)nc1 [Compound 36, 1-Cyclopropyl-7-[5-(2-diethylamino-ethoxy)-pyridin-2-ylamino]-3-isopropyl-1H-[1,6]naphthyridin-2-one]	–	–	–	–	–	–	1000 to 10000 nM	> 10000 nM	–
CCOC(=O)/C=C/c1cc2cnc(Nc3ccc(C)cn3)cc2n(CC)c1=O [Compound 38]	> 5000 nM	–	> 5000 nM	> 5000 nM	–	–	> 10000 nM	–	> 10000 nM
CCn1c(=O)c(-c2c(Cl)cccc2Cl)cc2cnc(Nc3ccc(F)cn3)cc21 [Compound 76, 3-(2,6-dichlorophenyl)-1-ethyl-7-((5-fluoropyridin-2-yl)amino)-1,6-naphthyridin-2(1H)-one]	–	–	< 100 nM	< 100 nM	–	100 to 1000 nM	< 1000 nM	> 10000 nM	–
O=c1c(-c2c(F)cccc2F)cc2cnc(Nc3ccc(F)cn3)cc2n1C1CCOCC1 [Compound 80, 3-(2,6-difluorophenyl)-7-((5-fluoropyridin-2-yl)amino)-1-(tetrahydro-2H-pyran-4-yl)-1,6-naphthyridin-2(1H)-one]	–	–	> 5000 nM	< 100 nM	–	–	< 1000 nM	> 10000 nM	–
O=c1c(-c2c(F)cccc2F)cc2cnc(Nc3ccc(F)cn3)cc2n1-c1ccccc1 [Compound 81, 3-(2,6-difluorophenyl)-7-((5-fluoropyridin-2-yl)amino)-1-phenyl-1,6-naphthyridin-2(1H)-one]	–	–	< 100 nM	< 100 nM	–	–	1000 to 10000 nM	> 10000 nM	–
CCN(CC)CCOc1ccc(Nc2cc3c(cn2)cc(-c2ccccc2)c(=O)n3-c2ccncc2)nc1 [Compound 82, 7-[5-(2-Diethylamino-ethoxy)-pyridin-2-ylamino]-3-phenyl-1-pyridin-4-yl-1H-[1,6]naphthyridin-2-one]	–	–	< 100 nM	< 100 nM	–	100 to 1000 nM	< 1000 nM	–	> 10000 nM
CCN(CC)CCOc1ccc(Nc2cc3c(cn2)cc(-c2ccccc2)c(=O)n3CC)cc1 [Compound 86]	–	–	1000 nM	< 100 nM	–	–	1000 to 10000 nM	> 10000 nM	–
CCn1c(=O)ccc2cnc(Nc3ccc(C)cn3)cc21 [Compound 87]	–	–	> 5000 nM	> 5000 nM	–	1000 to 5000 nM	1000 to 10000 nM	1000 to 10000 nM	–
CCn1c(=O)c(Br)cc2cnc(Nc3ccc(C)cn3)cc21 [Compound 88]	–	–	< 100 nM	> 5000 nM	–	100 to 1000 nM	< 1000 nM	< 1000 nM	–
CCn1c(=O)c(-c2ccccc2)cc2cnc(NC3=NCCO3)cc21 [Compound 90]	> 5000 nM	–	–	–	–	–	> 10000 nM	–	> 10000 nM
CCn1c(=O)c(-c2ccccc2)cc2cnc(NC3=NCCS3)cc21 [Compound 91]	> 5000 nM	–	–	–	–	–	> 10000 nM	–	> 10000 nM
CCN(CC)CCOc1ccc(Nc2cc3c(cn2)cc(-c2c(F)ccc(Cl)c2F)c(=O)n3CC)nc1 [Compound 97, 3-(3-chloro-2,6-difluorophenyl)-7-((5-(2-(diethylamino)ethoxy)pyridin-2-yl)amino)-1-ethyl-1,6-naphthyridin-2(1H)-one]	–	–	< 100 nM	< 100 nM	–	100 to 1000 nM	< 1000 nM	1000 to 10000 nM	–
CCN(CC)CCOc1ccc(Nc2cc3c(cn2)cc(-c2c(Cl)cccc2OC)c(=O)n3CC)nc1 [Compound 108, 3-(2-chloro-6-methoxyphenyl)-7-((5-(2-(diethylamino)ethoxy)pyridin-2-yl)amino)-1-ethyl-1,6-naphthyridin-2(1H)-one]	< 100 nM	–	< 100 nM	< 100 nM	–	–	< 1000 nM	–	> 10000 nM
CCn1c(=O)c(-c2ccccc2)cc2cnc(Nc3cccnn3)cc21 [Compound 112, 1-ethyl-3-phenyl-7-(pyridazin-3-ylamino)-1,6-naphthyridin-2(1H)-one]	–	–	> 5000 nM	> 5000 nM	–	1000 to 5000 nM	> 10000 nM	> 10000 nM	–
CCn1c(=O)c(-c2c(F)cccc2OC)cc2cnc(Nc3ccc(N(C)C4CCN(C)CC4)cn3)cc21 [Compound 118, 1-ethyl-3-(2-fluoro-6-methoxyphenyl)-7-((5-(methyl(1-methylpiperidin-4-yl)amino)pyridin-2-yl)amino)-1,6-naphthyridin-2(1H)-one]	< 100 nM	–	< 100 nM	< 100 nM	–	–	< 1000 nM	1000 to 10000 nM	–
CCn1c(=O)c(-c2cc(OC)ccc2F)cc2cnc(Nc3ccc(N(C)C4CCN(C)CC4)cn3)cc21 [Compound 119, 1-ethyl-3-(2-fluoro-5-methoxyphenyl)-7-((5-(methyl(1-methylpiperidin-4-yl)amino)pyridin-2-yl)amino)-1,6-naphthyridin-2(1H)-one]	–	–	–	–	–	100 to 1000 nM	< 1000 nM	–	1000 to 10000 nM
CCn1c(=O)c(-c2c(Cl)cccc2Cl)cc2cnc(Nc3ccc(N(C)C4CCN(C)CC4)cn3)cc21 [Compound 121, 3-(2,6-dichlorophenyl)-1-ethyl-7-((5-(methyl(1-methylpiperidin-4-yl)amino)pyridin-2-yl)amino)-1,6-naphthyridin-2(1H)-one]	< 100 nM	–	< 100 nM	< 100 nM	–	–	< 1000 nM	1000 to 10000 nM	–
CCn1c(=O)c(-c2c(O)cccc2Cl)cc2cnc(Nc3ccc(N(C)C4CCN(C)CC4)cn3)cc21 [Compound 122, 3-(2-chloro-6-hydroxyphenyl)-1-ethyl-7-((5-(methyl(1-methylpiperidin-4-yl)amino)pyridin-2-yl)amino)-1,6-naphthyridin-2(1H)-one]	< 100 nM	–	< 100 nM	< 100 nM	–	–	< 1000 nM	–	1000 to 10000 nM
